According to patent US4314028A, “Fermentation process for producing tallysomycin compounds” (priority 1980, dated 1982):
Where two headings read alike, the source gives them in different places.

Key:
[1] = system: Lymphocytic leukemia P388; assay: animal or person; type: in vivo, BDF1 mice; conditions: for Antitumor activity P388 (ED125): ip, once daily 9 days, dose giving T/C survival of 125%; for Antitumor activity P388 (ED125) / Antitumor therapeutic index P388: copper-chelated form unless otherwise stated; for Antitumor therapeutic index P388: single dose LD50/ED125
In short: (§1)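 P388 (3×10^5 cells) and Lewis lung (5×10^5) i.p. in BDF1 mice, B16 (5×10^5) s.c. in BDF1, Sarcoma 180 ([…]) i.p. in male dd mice. ED125 (Sarcoma 180 ED150) from median-survival T/C, 45 days; B16 ID50 from day-16 tumor size.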

[2] = system: Sarcoma 180; assay: animal or person; type: in vivo, dd-strain mice; conditions: for ED (T/C 150%): Mus musculus, 216 h, read-out: Antitumor activity S180 (ED150); for ED (T/C 150%) / Antitumor activity S180 (ED150): ip; for Antitumor therapeutic index S180: single dose LD50/ED150
In short: as §1

[3] = system: Lewis lung carcinoma; assay: Antitumor activity in mice, Lewis lung carcinoma; type: in vivo, BDF1 mice; conditions: for Antitumor activity Lewis lung (ED125): once daily 11 days, dose giving T/C survival of 125%; for Antitumor activity Lewis lung (ED125) / Antitumor therapeutic index Lewis Lung: copper-chelated form unless otherwise stated; for Antitumor therapeutic index Lewis Lung: single dose LD50/ED125
Text: The antitumor activity of the tallysomycin derivatives was examined in four experimental tumor systems in mice. Lymphocytic leukemia P388 and Lewis lung carcinoma were implanted intraperitoneally into BDF1 mice of either sex at an inoculum size of 3×10^5 and 5×10^5 cells per mouse, respectively. Sarcoma 180 ascites tumor was inoculated intraperitoneally into male dd-strain mice with […] per mouse. Melanotic melanoma B16 was implanted subcutaneously into BDF1 mice with 5×10^5 cells per mouse. Twenty-four hours after the implantation of tumor cells, graded doses of test compounds were administered to mice intraperitoneally in an injection volume of 0.2 ml. per 10 grams of body weight. Test compounds were given once daily for 9 days (qd 1→9 schedule) except for the mice inoculated with Lewis lung carcinoma which were treated for 11 days (qd 1→11). Death or survival of the treated and non-treated (control) animals was recorded daily during the observation period of 45 days after the implantation of tumor cells, and the median survival time was calculated for each of the test (T) and control (C) groups. […] The actual dose giving a T/C of 125% was estimated by linear regression analysis and defined as the effective dose 125 or ED125. The effective dose 150 (ED150) was employed for the evaluation of antitumor effect against Sarcoma 180. In the B16 melanoma experiment the tumor size was measured on day 16 after tumor inoculation, and the dose giving 50% inhibition of tumor growth (ID50) was calculated from regression lines.
The antitumor therapeutic index was calculated for each derivative from the ratio of toxicity and antitumor activity.

[4] = Subacute toxicity, multiple dose LD50; type: in vivo, dd mice; conditions: ip, once daily 9 days, 30 days observation; copper-chelated form unless otherwise stated
Procedure: (§2) Graded doses of test compounds were administered intraperitoneally to groups of dd mice. The injection was given one time only or once daily for 9 consecutive days. Death or survival of the animals was recorded for 30 days after the last dose of test compound to calculate the single or multiple median lethal dose (LD50).

[5] = Acute toxicity, single dose LD50; type: in vivo, dd mice; conditions: ip, 30 days observation, copper-chelated form unless otherwise stated
Procedure: as §2

[6] = system: lysogenic bacterium E. coli W1709 (λ); assay: Prophage induction of lysogenic bacterium (ILB activity); type: cell-based; conditions: t/c ratio of plaque counts greater than 3.0
In short: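 Plaques counted on agar plates containing test compound and on control plates, following Lein et al. A test/control plaque ratio above 3.0 counted as significant. Value given as the minimum inducible concentration.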

[7] = system: Melanotic melanoma B16; assay: Antitumor activity in mice, melanotic melanoma B16; type: in vivo, BDF1 mice; conditions: copper-chelated form unless otherwise stated; for Antitumor activity B16 (ID50): ip, once daily 9 days, 50% inhibition of tumor growth, day 16, 23040 min; for Antitumor therapeutic index B16: single dose LD50/ID50
In short: as §1

[8] = system: Mycobacterium smegmatis strain M6-3; assay: Relative antibacterial potency, paper-disc agar diffusion method; type: cell-based; conditions: relative to tallysomycin A standard=1000 mcg/mg
Procedure: The relative antibacterial potencies (tallysomycin A standard=1000 mcg/mg) of the tallysomycin derivatives were determined by the paper-disc agar diffusion method using Mycobacterium smegmatis strain M6-3 as the assay organism.

[9] = system: Proteus mirabilis A9554; assay: MIC, two-fold agar dilution method; type: cell-based; conditions: nutrient agar
In short: (§3)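 Two-fold agar dilution; nutrient agar for bacteria, Sabouraud agar for A. fumigatus. MIC = lowest inhibitory concentration.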

[10] = system: Mycobacterium 607; assay: MIC, two-fold agar dilution method; type: cell-based; conditions: nutrient agar
In short: (§4)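 The lowest concentration preventing growth is reported as the MIC. Testing used doubling agar dilutions. The medium was Sabouraud for Aspergillus and nutrient agar for the Staphylococcus, Sarcina and Mycobacterium strains.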

[11] = system: Candida albicans IAM 4888; assay: MIC, two-fold agar dilution method; type: cell-based; conditions: Sabouraud agar
In short: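 Agar dilution (2-fold series) on nutrient agar (bacteria) or Sabouraud agar (fungi).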

[12] = system: Bacillus subtilis PCI 219; assay: MIC, two-fold agar dilution method; type: cell-based; conditions: nutrient agar
In short: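 For each organism, growth was scored on agar plates carrying doubling concentrations of compound. Bacteria, both gram-positive and acid-fast, grew on nutrient agar, and A. fumigatus grew on Sabouraud agar.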

[13] = system: Staphylococcus aureus Smith; assay: MIC, two-fold agar dilution method; type: cell-based; conditions: nutrient agar
In short: as §4

[14] = system: Aspergillus fumigatus IAM 2593; assay: MIC, two-fold agar dilution method; type: cell-based; conditions: Sabouraud agar
In short: as §4

[15] = system: Escherichia coli NIHJ; assay: MIC, two-fold agar dilution method; type: cell-based; conditions: nutrient agar
In short: as §3

[16] = system: Sarcina lutea PCI1001; assay: MIC, two-fold agar dilution method; type: cell-based; conditions: nutrient agar
In short: as §4

[17] = once daily 9 days, effective dose 150, survival, copper-chelated form unless otherwise stated
[18] = copper-chelated form unless otherwise stated

Compound | Antitumor activity P388 (ED125) [1] | ED (T/C 150%) [2, 17] | Antitumor activity Lewis lung (ED125) ([3]; ip) | LD50 multiple dose (qd 1 → 9) [4] | LD50 single dose [5] | ILB activity (minimum inducible concentration) [6] | Antitumor activity B16 (ID50) [7] | Antitumor therapeutic index B16 [7] | Antitumor therapeutic index P388 [1] | Antitumor activity S180 (ED150) [2, 17] | Antitumor therapeutic index S180 [2, 18] | Antibacterial potency [8] | minimum inhibitory concentration (MIC) [9] | minimum inhibitory concentration (MIC) [10] | minimum inhibitory concentration (MIC) [11] | minimum inhibitory concentration (MIC) [12] | minimum inhibitory concentration (MIC) [13] | minimum inhibitory concentration (MIC) [14] | minimum inhibitory concentration (MIC) [15] | minimum inhibitory concentration (MIC) [16] | further results
Cc1c(N)nc(C(CC(N)=O)NCC(N)C(N)=O)nc1C(=O)NC(C(=O)NC(C)C(O)CC(=O)NC(C(=O)NC(OC1OC(C)C(N)C(O)C1O)C(O)c1nc(-c2nc(C(=O)NCCCC(N)CC(=O)NCCCNCCCCN)cs2)cs1)C(C)O)C(OC1OC(CO)C(O)C(O)C1OC1OC(CO)C(O)C(OC(N)=O)C1O)c1c[nH]cn1 (stereo not shown) [Tallysomycin A (Cu-free), reference compound] | 0.26 mg/kg/day | 0.07 mg/kg/day | 0.13 mg/kg/day | 4.4 mg/kg/day | 19 mg/kg/day |  |  |  |  |  |  |  |  |  |  |  |  |  |  |  | 
Cc1c(N)nc(C(CC(N)=O)NCC(N)C(N)=O)nc1C(=O)NC(C(=O)NC(C)C(O)CC(=O)NC(C(=O)NC(OC1OC(C)C(N)C(O)C1O)C(O)c1nc(-c2nc(C(=O)NCCNCC(C)O)cs2)cs1)C(C)O)C(OC1OC(CO)C(O)C(O)C1OC1OC(CO)C(O)C(OC(N)=O)C1O)c1c[nH]cn1 (stereo not shown) [Tallysomycin S5b] | 0.66 mg/kg/day |  | 0.38 mg/kg/day | 4.0 mg/kg/day | 46 mg/kg/day | 0.08 µg/mL | 0.31 mg/kg/day | 148 | 70 | 0.10 mg/kg/day | 460 | 500 μ/mg | 3.1 | 0.2 | 25 | 0.025 | 6.3 | 0.4 | 0.4 | 12.5 | Antitumor therapeutic index Lewis Lung [3]: 121
Cc1c(N)nc(C(CC(N)=O)NCC(N)C(N)=O)nc1C(=O)NC(C(=O)NC(C)C(O)CC(=O)NC(C(=O)NC(OC1OC(C)C(N)C(O)C1O)C(O)c1nc(-c2nc(C(=O)NCCCNCCCCN)cs2)cs1)C(C)O)C(OC1OC(CO)C(O)C(O)C1OC1OC(CO)C(O)C(OC(N)=O)C1O)c1c[nH]cn1 (stereo not shown) [Tallysomycin B (Cu-free), reference compound] | 0.89 mg/kg/day | 0.06 mg/kg/day | 0.11 mg/kg/day | 6.8 mg/kg/day | 46 mg/kg/day |  |  |  |  |  |  |  |  |  |  |  |  |  |  |  | 
Cc1c(N)nc(C(CC(N)=O)NCC(N)C(N)=O)nc1C(=O)NC(C(=O)NC(C)C(O)CC(=O)NC(C(=O)NC(OC1OC(C)C(N)C(O)C1O)C(O)c1nc(-c2nc(C(=O)NCCCNC(C)c3ccccc3)cs2)cs1)C(C)O)C(OC1OC(CO)C(O)C(O)C1OC1OC(CO)C(O)C(OC(N)=O)C1O)c1c[nH]cn1 (stereo not shown) [Tallysomycin S14b] | 3.0 mg/kg/day |  | 0.29 mg/kg/day | 16 mg/kg/day |  | 0.04 µg/mL | 0.43 mg/kg/day |  |  | 0.08 mg/kg/day |  | 1,090 μ/mg | 25 | 0.2 | > 100 | 0.4 | 3.1 | 25 | 0.4 | 3.1 | 
Cc1c(N)nc(C(CC(N)=O)NCC(N)C(N)=O)nc1C(=O)NC(C(=O)NC(C)C(O)CC(=O)NC(C(=O)NC(OC1OC(C)C(N)C(O)C1O)C(O)c1nc(-c2nc(C(=O)NCCCCN)cs2)cs1)C(C)O)C(OC1OC(CO)C(O)C(O)C1OC1OC(CO)C(O)C(OC(N)=O)C1O)c1c[nH]cn1 (stereo not shown) [Tallysomycin S10b (Cu-free)] |  |  |  | 4.0 mg/kg/day | 42 mg/kg/day |  |  |  |  |  |  |  |  |  |  |  |  |  |  |  | ED (T/C 125%) ([1]; Mus musculus, P388, ip, 216 h, read-out: Antitumor activity P388 (ED125)): 0.47 mg/kg/day; ED (T/C 150%) [2]: 0.02 mg/kg/day; ED (T/C 125%) ([3]; Mus musculus, Lewis lung carcinoma, ip, 264 h, read-out: Antitumor activity Lewis lung (ED125)): 0.21 mg/kg/day
Cc1c(N)nc(C(CC(N)=O)NCC(N)C(N)=O)nc1C(=O)NC(C(=O)NC(C)C(O)CC(=O)NC(C(=O)NC(OC1OC(C)C(N)C(O)C1O)C(O)c1nc(-c2nc(C(=O)NCCC[S+](C)C)cs2)cs1)C(C)O)C(OC1OC(CO)C(O)C(O)C1OC1OC(CO)C(O)C(OC(N)=O)C1O)c1cnc[nH]1.Cl.Cl.Cl.[Cl-] (stereo not shown) [Tallysomycin S2b] | 0.91 mg/kg/day |  | 0.65 mg/kg/day | 2.0 mg/kg/day | 32 mg/kg/day | 0.63 µg/mL | 0.33 mg/kg/day | 97 | 35 | 0.12 mg/kg/day | 267 | 300 μ/mg | 1.6 | 0.2 | 25 | < 0.05 | 1.6 | 0.8 | 0.4 | 6.3 | Antitumor therapeutic index Lewis Lung [3]: 49
